The record followed here is patent publication US8354436B2 (4SC Discovery GmbH, priority 2011, dated 2013).

SMILES strings stand for the structures. Read-outs that look alike come from different tables or passages of the source.

Common to all, as to assay type: cell-based
Settings in all cases: 48 hours

For test [1], the system named is PBMC from healthy human donors. Description: T cell proliferation assay (PHA-stimulated human PBMC, BrdU ELISA). The essentials: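 Healthy-donor PBMC isolated on Ficoll, seeded at 1×10⁵ cells/well in RPMI with 10% dialysed FCS, stimulated with 2 μg/ml PHA in presence of test compound. Proliferation read after 48 hours by BrdU-incorporation ELISA.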
A further test has as its system IFN-γ. Description: IFN-γ production by PHA-stimulated human PBMC (OptEIA human IFN-g ELISA). The essentials: (§1)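 Inhibition of PHA-driven (2 μg/ml) cytokine release from human PBMC at 1×10^5 cells/well, 48 h compound exposure. IC50 from semilog titrations.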
(In general: In an ELISA, binding on a coated surface is turned into a signal by an enzyme label.)

A further test relates to IL-17FF. The test is described as follows: IL-17FF production by PHA-stimulated human PBMC (human IL-17F ELI-Pair). In outline: as §1
The mark [2] stands for this setting: PHA-stimulated human PBMC, column D, read-out: IC50 (Tcell proliferation).
Where [3] appears, read: PHA-stimulated human PBMC, column C, read-out: IC50 (IFNγ).
Where [4] appears, read: PHA-stimulated human PBMC, column B, read-out: IC50 (IL-17FF).
Setting [5] is: human PBMC, 2 μg/ml PHA, read-out: D: IC50 (Tcell proliferation).
Where [6] appears, read: human PBMC, 2 μg/ml PHA, read-out: C: IC50 (IFNγ).
[7] abbreviates: human PBMC, 2 μg/ml PHA, read-out: B: IC50 (IL-17FF).

On to `O=C(Nc1c(-c2c(F)cccc2Cl)noc1-c1cnn(-c2cccc(F)c2)c1C(F)(F)F)C(F)(F)F` [IB-22, N-{3-(2-chloro-6-fluorophenyl)-5-[1-(3-fluorophenyl)-5-(trifluoromethyl)-1H-pyrazol-4-yl]-1,2-oxazol-4-yl}-2,2,2-trifluoroacetamide], for which the IC50 (in test [1] (setting [2]); with IFN-γ (setting [3]); in the test on IL-17FF (setting [4])) was 1 to 10 µM in each case.
Turning to `Cc1nnc(-c2c(-c3c(F)cccc3Cl)noc2-c2cnn(-c3ccccn3)c2C(F)(F)F)o1` [Example B-26, 2-(3-(2-chloro-6-fluorophenyl)-5-(1-(pyridin-2-yl)-5-(trifluoromethyl)-1H-pyrazol-4-yl)isoxazol-4-yl)-5-methyl-1,3,4-oxadiazole], the IC50 lay within 0.1 to 1 µM in test [1] (setting [5]), 0.01 to 0.1 µM in the test with IFN-γ (setting [6]) and 0.01 to 0.1 µM in the test with IL-17FF (setting [7]).
As to `COC(=O)c1c(-c2c(F)cccc2Cl)noc1-c1cnn(-c2cccc(Cl)c2)c1` [Example I-115, methyl 3-(2-chloro-6-fluorophenyl)-5-(1-(3-chlorophenyl)-1H-pyrazol-4-yl)isoxazole-4-carboxylate], the IC50 (in test [1] (setting [2]); in the test on IFN-γ (setting [3]); with IL-17FF (setting [4])) was 1 to 10 µM throughout.
Consider `COC(=O)c1c(-c2c(F)cccc2Cl)noc1-c1cnn(CC(F)(F)F)c1C(F)(F)F` [Example I-65, methyl 3-(2-chloro-6-fluorophenyl)-5-(1-(2,2,2-trifluoroethyl)-5-(trifluoromethyl)-1H-pyrazol-4-yl)isoxazole-4-carboxylate], for which the IC50 (in test [1] (setting [2]); in the test with IFN-γ (setting [3]); with IL-17FF (setting [4])) was 0.01 to 0.1 µM in each case.
Regarding `Cc1nnc(-c2c(-c3c(F)cccc3Cl)noc2-c2cnn(-c3cccc(S(N)(=O)=O)c3)c2C(F)(F)F)s1` [Example B-23, 3-(4-(3-(2-chloro-6-fluorophenyl)-4-(5-methyl-1,3,4-thiadiazol-2-yl)isoxazol-5-yl)-5-(trifluoromethyl)-1H-pyrazol-1-yl)benzenesulfonamide], the IC50 (in test [1] (setting [5]); with IFN-γ (setting [6]); in the test with IL-17FF (setting [7])) was 1 to 10 µM each time.
In the case of `COC(=O)c1c(-c2c(F)cccc2Cl)noc1-c1cnn(-c2cccc(NC(C)=O)c2)c1C(F)(F)F` [IB-89, 5-(1-(3-acetamidophenyl)-5-(trifluoromethyl)-1H-pyrazol-4-yl)-3-(2-chloro-6-fluorophenyl)isoxazole-4-carboxylate], the values for the IC50 (in test [1] (setting [2]); in the test with IFN-γ (setting [3]); in the test with IL-17FF (setting [4])) were 0.1 to 1 µM, 0.01 to 0.1 µM and 0.01 to 0.1 µM, respectively.
For the compound `NC(=S)c1c(-c2c(F)cccc2Cl)noc1-c1cnn(-c2cccc(Cl)c2)c1C(F)(F)F` [Example I-125, 3-(2-chloro-6-fluorophenyl)-5-(1-(3-chlorophenyl)-5-(trifluoromethyl)-1H-pyrazol-4-yl)isoxazole-4-carbothioamide], the IC50 in test [1] (setting [2]) lay in the range of 1 to 10 µM; in the test with IFN-γ (setting [3]) it was 0.1 to 1 µM; in the test with IL-17FF (setting [4]), 0.1 to 1 µM.
On to `CSC(=O)c1c(-c2c(F)cccc2Cl)noc1-c1cnn(-c2ccccc2F)c1C(F)(F)F` [Example I-130, S-methyl 3-(2-chloro-6-fluorophenyl)-5-(1-(2-fluorophenyl)-5-(trifluoromethyl)-1H-pyrazol-4-yl)isoxazole-4-carbothioate], for which the IC50 (in test [1] (setting [2]); in the test with IFN-γ (setting [3]); with IL-17FF (setting [4])) was below 0.01 µM each time.
Turning to `CON(C)C(=O)c1c(-c2c(F)cccc2Cl)noc1-c1cnn(-c2cccnc2)c1C(F)(F)F` [IB-56, 3-(2-chloro-6-fluorophenyl)-N-methoxy-N-methyl-5-(1-(pyridin-3-yl)-5-(trifluoromethyl)-1H-pyrazol-4-yl)isoxazole-4-carboxamide], the IC50 (in test [1] (setting [2]); with IFN-γ (setting [3]); in the test on IL-17FF (setting [4])) was 1 to 10 µM throughout.
For `CCOC(=O)c1csc(-c2c(-c3c(F)cccc3Cl)noc2-c2cnn(-c3cccc(F)c3)c2C(F)(F)F)n1` [Example B-1, ethyl 2-(3-(2-chloro-6-fluorophenyl)-5-(1-(3-fluorophenyl)-5-(trifluoromethyl)-1H-pyrazol-4-yl)isoxazol-4-yl)thiazole-4-carboxylate], the IC50 (in test [1] (setting [5]); in the test on IFN-γ (setting [6]); in the test with IL-17FF (setting [7])) was 0.1 to 1 µM in each case.
Regarding `CON(C)C(=O)c1c(-c2c(F)cccc2Cl)noc1-c1cnn(-c2cccc(F)c2)c1C(F)(F)F` [Example I-135, 3-(2-chloro-6-fluorophenyl)-5-(1-(3-fluorophenyl)-5-(trifluoromethyl)-1H-pyrazol-4-yl)-N-methoxy-N-methylisoxazole-4-carboxamide], the IC50 (in test [1] (setting [2]); in the test on IFN-γ (setting [3]); in the test with IL-17FF (setting [4])) was 0.1 to 1 µM each time.
In the case of `COC(=O)c1c(-c2c(F)cccc2Cl)noc1-c1cnn(-c2c(Cl)cccc2Cl)c1C(F)(F)F` [Example I-70, methyl 3-(2-chloro-6-fluorophenyl)-5-(1-(2,6-dichlorophenyl)-5-(trifluoromethyl)-1H-pyrazol-4-yl)isoxazole-4-carboxylate], the IC50 (in test [1] (setting [2]); with IFN-γ (setting [3]); in the test on IL-17FF (setting [4])) was 0.1 to 1 µM throughout.
`O=C(c1c(-c2c(F)cccc2Cl)noc1-c1cnn(-c2cccc(F)c2)c1C(F)(F)F)N1CCCO1` [Example I-118, (3-(2-chloro-6-fluorophenyl)-5-(1-(3-fluorophenyl)-5-(trifluoromethyl)-1H-pyrazol-4-yl)isoxazol-4-yl)(isoxazolidin-2-yl)methanone]: the IC50 (in test [1] (setting [2]); in the test on IFN-γ (setting [3]); in the test with IL-17FF (setting [4])) was 0.01 to 0.1 µM in each case.
For `Fc1cccc(Cl)c1-c1noc(-c2cnn(-c3ccncc3)c2C(F)(F)F)c1-c1ccoc1` [Example B-24, 3-(2-chloro-6-fluorophenyl)-4-(furan-3-yl)-5-(1-(pyridin-4-yl)-5-(trifluoromethyl)-1H-pyrazol-4-yl)isoxazole], the IC50 (in test [1] (setting [5]); in the test on IFN-γ (setting [6]); with IL-17FF (setting [7])) was 0.01 to 0.1 µM throughout.
For `COC(=O)c1c(-c2c(F)cccc2Cl)noc1-c1cnn(CC(C)C)c1C(F)(F)F` [Example I-28], the figures for the IC50 (in test [1] (setting [2]); in the test on IFN-γ (setting [3]); in the test on IL-17FF (setting [4])) were 0.1 to 1 µM, 0.01 to 0.1 µM and 0.01 to 0.1 µM, respectively.
As for `O=C(c1c(-c2c(F)cccc2Cl)noc1-c1cnn(-c2cccc(F)c2)c1C(F)(F)F)N1CCOCC1` [Example I-127, (3-(2-chloro-6-fluorophenyl)-5-(1-(3-fluorophenyl)-5-(trifluoromethyl)-1H-pyrazol-4-yl)isoxazol-4-yl)(morpholino)methanone], the IC50 in test [1] (setting [2]) was 1 to 10 µM; with IFN-γ (setting [3]) it was 0.1 to 1 µM; in the test with IL-17FF (setting [4]), 0.1 to 1 µM.
On to `CCOC(=O)c1c(-c2c(F)cccc2Cl)noc1-c1cnn(-c2cccc([N+](=O)[O-])c2)c1C(F)(F)F` [IB-90, ethyl 3-(2-chloro-6-fluorophenyl)-5-(1-(3-nitrophenyl)-5-(trifluoromethyl)-1H-pyrazol-4-yl)isoxazole-4-carboxylate], for which the IC50 (in test [1] (setting [2]); in the test on IFN-γ (setting [3]); in the test with IL-17FF (setting [4])) was 0.01 to 0.1 µM throughout.
For `CON(C)C(=O)c1c(-c2ccccc2Cl)noc1-c1cnn(-c2cccc(Cl)c2)c1C(F)(F)F` [IB-64, 3-(2-chlorophenyl)-5-(1-(3-chlorophenyl)-5-(trifluoromethyl)-1H-pyrazol-4-yl)-N-methoxy-N-methylisoxazole-4-carboxamide], the IC50 lay within 0.1 to 1 µM in test [1] (setting [2]), 0.1 to 1 µM in the test with IFN-γ (setting [3]) and 0.01 to 0.1 µM in the test on IL-17FF (setting [4]).
For the compound `CCOC(=O)c1c(-c2c(F)cccc2Cl)noc1-c1cnn(Cc2ccccc2F)c1C(F)(F)F` [IB-80, ethyl 3-(2-chloro-6-fluorophenyl)-5-(1-(2-fluorobenzyl)-5-(trifluoromethyl)-1H-pyrazol-4-yl)isoxazole-4-carboxylate], the IC50 (in test [1] (setting [2]); in the test on IFN-γ (setting [3]); in the test with IL-17FF (setting [4])) was 1 to 10 µM throughout.
As to `CO/C(=N\c1c(-c2c(F)cccc2Cl)noc1-c1cnn(-c2cccc(F)c2)c1C(F)(F)F)C(F)(F)F` [Example I-136, (Z)-methyl N-(3-(2-chloro-6-fluorophenyl)-5-(1-(3-fluorophenyl)-5-(trifluoromethyl)-1H-pyrazol-4-yl)isoxazol-4-yl)-2,2,2-trifluoroacetimidate], the IC50 in test [1] (setting [2]) fell in the range of 0.1 to 1 µM; with IFN-γ (setting [3]), 0.01 to 0.1 µM; with IL-17FF (setting [4]) it was 0.1 to 1 µM.
Turning to `COc1cccc(Cl)c1-c1noc(-c2cnn(-c3cccnc3)c2C(F)(F)F)c1-c1cnco1` [Example B-31, 3-(2-chloro-6-methoxyphenyl)-4-(oxazol-5-yl)-5-(1-(pyridin-3-yl)-5-(trifluoromethyl)-1H-pyrazol-4-yl)isoxazole], the IC50 is 1 to 10 µM in test [1] (setting [5]), 0.1 to 1 µM in the test with IFN-γ (setting [6]) and 1 to 10 µM in the test with IL-17FF (setting [7]).
For `CCOC(=O)c1c(-c2ccc(Cl)cc2Cl)noc1-c1cnn(-c2cccc(F)c2)c1C(F)(F)F` [Example I-112, ethyl 3-(2,4-dichlorophenyl)-5-(1-(3-fluorophenyl)-5-(trifluoromethyl)-1H-pyrazol-4-yl)isoxazole-4-carboxylate], the values for the IC50 (in test [1] (setting [2]); in the test on IFN-γ (setting [3]); in the test on IL-17FF (setting [4])) were 0.1 to 1 µM, 0.01 to 0.1 µM and 0.1 to 1 µM, respectively.
For the compound `COC(=O)c1c(-c2c(F)cccc2Cl)noc1-c1cnn(-c2ccccc2F)c1C(F)(F)F` [Example I-1, methyl 3-(2-chloro-6-fluorophenyl)-5-(1-(2-fluorophenyl)-5-(trifluoromethyl)-1H-pyrazol-4-yl)isoxazole-4-carboxylate], the IC50 in test [1] (setting [2]) is 0.01 to 0.1 µM; with IFN-γ (setting [3]), below 0.01 µM; with IL-17FF (setting [4]), 0.01 to 0.1 µM.
